{"source": "patent US4652586A", "about": "“Selective beta-2 adrenergic antagonists for the treatment of glaucoma” (priority 1980, dated 1987)", "key": {"adult female cats": {"tested_on": "adult female cats", "conditions": "Colasanti and Trotter 1979; cited from earlier work"}, "[1]": {"target": "beta1-adrenergic receptor present in mammalian heart", "conditions": "Table I; data from Minneman et al; read-out: Kd for IHYP Binding, Heart (E); cited from earlier work"}, "heart adenylate cyclase": {"target": "heart adenylate cyclase", "conditions": "Table I, data from Minneman et al, cited from earlier work; for pKi: antagonists, read-out: Adenylate Cyclase Ki, Heart (G)"}, "[2]": {"target": "rabbit heart isoproterenol-stimulated adenylate cyclase", "assay": "rabbit heart isoproterenol-stimulated adenylate cyclase", "assay_type": "biochemical"}, "[3]": {"tested_on": "rabbit ciliary process adenylate cyclase (beta2-adrenergic receptors)", "assay": "rabbit ciliary process isoproterenol-stimulated adenylate cyclase", "assay_type": "biochemical", "conditions": "for Ki heart / Ki Ciliary Process = beta2/beta1 potency ratio: Table III, rabbit heart vs rabbit ciliary process, ±20%"}, "[4]": {"target": "T1, rabbit ciliary process adenylate cyclase (beta2-adrenergic receptors) (Oryctolagus cuniculus, UniProt G1TAV7)", "T1 construct": "Homogenates or washed particulate preparations (10 mg/ml) in 6 mM Tris-maleate, pH 7.4, are prepared from the various tissues to be studied; from tissue; host or cells: rabbit ciliary process", "T1 sequence (G1TAV7 1-437)": "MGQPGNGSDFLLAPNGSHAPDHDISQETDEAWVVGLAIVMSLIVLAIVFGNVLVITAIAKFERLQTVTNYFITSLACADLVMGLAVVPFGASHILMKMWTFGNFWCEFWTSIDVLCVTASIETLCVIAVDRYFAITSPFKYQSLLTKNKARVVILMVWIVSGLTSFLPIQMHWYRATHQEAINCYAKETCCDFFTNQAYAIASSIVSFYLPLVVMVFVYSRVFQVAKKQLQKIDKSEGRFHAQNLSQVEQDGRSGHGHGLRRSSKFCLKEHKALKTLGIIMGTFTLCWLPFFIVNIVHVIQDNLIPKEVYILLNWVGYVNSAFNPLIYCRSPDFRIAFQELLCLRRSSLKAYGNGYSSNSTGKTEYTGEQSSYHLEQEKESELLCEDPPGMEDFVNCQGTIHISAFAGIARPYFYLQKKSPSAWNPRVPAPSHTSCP", "assay": "rabbit ciliary process isoproterenol-stimulated adenylate cyclase", "assay_type": "biochemical", "conditions": "Table III; rabbit ciliary process, isoproterenol-stimulated"}, "rabbit eyes": {"tested_on": "rabbit eyes", "assay": "intraocular pressure in normal rabbit eyes after topical application", "conditions": "for IOP in the contralateral eye: 0.5% topical to ipsilateral eye, presumably systemic absorption; for IOP in ipsilateral eyes compared to predrug readings: two 50 microliter doses, normal rabbit, FIG. 2"}, "[5]": {"tested_on": "ciliary body adenylate cyclase", "assay": "ciliary body adenylate cyclase stimulation", "assay_type": "biochemical", "text": "(§1) The discovery that the ciliary process of the mammalian eye contains β2 -adrenergic receptors is based on the technique of measuring adenylate cyclase, an enzyme which synthesizes cyclic AMP from ATP. It has been established that receptor binding of beta adrenergic agonists is associated with a concomitant activation of adenylate cyclase. (Robison, G. A., et al, Cyclic AMP, Academic Press, New York, 1971, and Wolfe, B. B., et al, Annual Reviews of Pharmacology and Toxicology, 17:575-604 (1977)). […] Beta adrenergic sensitive adenylate cyclase activity was thus identified and characterized in the ocular tissues of several mammalian species such as rabbits, cats, dogs, monkeys and humans. After isolation of the ciliary process, adenylate cyclase activity was measured, and its activation by agonists or inhibition by antagonists was measured. […].\n(§2) For ciliary body, maximal stimulation was 15% of the stimulation seen in the ciliary process, and for iris, maximal stimulation was 22% for that seen in the ciliary process. […];"}, "iris adenylate cyclase": {"tested_on": "iris adenylate cyclase", "assay": "iris adenylate cyclase stimulation", "assay_type": "biochemical", "text": "as §1, §2"}, "[6]": {"conditions": "Table III, rabbit heart, isoproterenol-stimulated, read-out: Adenylate Cyclase Ki, Heart"}}, "note": "pKd, pKi: −log10 of the molar value. “Also recorded” adds a separate entry of the source. Counter-ions that a name gives are not always drawn. Like-named read-outs stand apart in the source and are kept apart here."}
{"smiles": "Cc1ccc(C(O)C(C)NC(C)C)cc1", "note": "(stereo not drawn) [H35/25, (1(4'-methyl phenyl)-2-isopropylaminopropanol)]", "values": [{"measurement": "maximal reduction of intraocular tension", "setting": "adult female cats", "result": "about the same maximal reduction as timolol"}, {"measurement": "pKd", "setting": "[1]", "result": 5.71}, {"measurement": "pKi", "setting": "heart adenylate cyclase", "result": 5.15}, {"measurement": "pKi", "setting": "[2]; [6]", "result": 5.15}, {"measurement": "Ki heart / Ki Ciliary Process = beta2/beta1 potency ratio", "setting": "[3]", "result": 8.8}, {"measurement": "β2/β1 potency ratio (Ki heart/Ki ciliary process)", "setting": "[3]; rabbit, heart vs ciliary process", "result": 3.1}, {"measurement": "pKi", "setting": "[4]", "result": 6.10}]}
{"smiles": "CNC[C@H](O)c1ccc(O)c(O)c1", "note": "[Epinephrine]", "values": [{"measurement": "Adenylate Cyclase Ka, Heart (G)", "setting": "heart adenylate cyclase; agonists, NE = no effect as agonist", "result": 1.5, "unit": "µM"}]}
{"smiles": "CC(C)(C)NCC(O)CON=C1c2ccccc2-c2ccccc21", "note": "(stereo not drawn) [IPS 339, (t-butyl-amino 3-ol-2-propyl)oximino-9 fluorene, hydrochloride]", "values": [{"measurement": "IOP in the contralateral eye", "setting": "rabbit eyes", "result": "significant decrease in IOP in the contralateral eye"}, {"measurement": "IOP in ipsilateral eyes compared to predrug readings", "setting": "rabbit eyes; 0.5% topical", "result": "significant decrease in IOP in ipsilateral eyes at 2 and 3 hours after application"}, {"measurement": "extent of IOP decrease, IPS 339 compared with timolol", "setting": "rabbit eyes; 0.5% topical, at 3 hours", "result": "significantly more than that caused by timolol"}, {"measurement": "magnitude of contralateral IOP effect", "setting": "rabbit eyes; 0.5% topical, compared with timolol", "result": "somewhat less for IPS 339 than for timolol"}, {"measurement": "pKi", "setting": "[2]; Table I, footnote ++ present invention, read-out: Adenylate Cyclase Ki, Heart (G)", "result": 6.08}, {"measurement": "pKi", "setting": "[2]; [6]", "result": 6.08}]}
{"smiles": "COc1ccc(OC)c(C(O)C(C)NC(C)(C)C)c1", "note": "(stereo not drawn) [Butoxamine]", "values": [{"measurement": "pKi", "setting": "heart adenylate cyclase", "result": 5.02}, {"measurement": "pKi", "setting": "[2]; [6]", "result": 5.02}, {"measurement": "β2/β1 potency ratio (Ki heart/Ki ciliary process)", "setting": "[3]; Table II, from Table I, accurate to ±20%", "result": 1.50}, {"measurement": "Ki heart / Ki Ciliary Process = beta2/beta1 potency ratio", "setting": "[3]", "result": 6.8}, {"measurement": "pKi", "setting": "[4]", "result": 5.85}]}
{"smiles": "CC(C)(C)NC[C@H](O)COc1nsnc1N1CCOCC1", "note": "[Timolol, timolol]", "values": [{"measurement": "IOP in the contralateral eye", "setting": "rabbit eyes", "result": "significant decrease in IOP in the contralateral eye"}, {"measurement": "IOP in ipsilateral eyes compared to predrug readings", "setting": "rabbit eyes; 0.5% topical", "result": "significant decrease in IOP in ipsilateral eyes at 2 and 3 hours after application; also recorded: significant decrease at 1 hour"}, {"measurement": "pKi", "setting": "heart adenylate cyclase", "result": 7.80}, {"measurement": "pKi", "setting": "[2]; [6]", "result": 7.80}, {"measurement": "pKi", "setting": "[4]", "result": 8.35}]}
{"smiles": "CC(C)NCC(O)c1ccc(O)c(O)c1", "note": "(stereo not drawn) [Isoproterenol, isoproterenol]", "values": [{"measurement": "maximal stimulation, ciliary body", "setting": "[5]", "result": "15 % of the stimulation seen in the ciliary process"}, {"measurement": "maximal stimulation, iris", "setting": "iris adenylate cyclase", "result": "22 % for that seen in the ciliary process"}]}
{"smiles": "CC(=O)Nc1ccc(OCC(O)CNC(C)C)cc1", "note": "(stereo not drawn) [Practolol, practolol]", "values": [{"measurement": "pKi", "setting": "heart adenylate cyclase", "result": 5.17}, {"measurement": "pKi", "setting": "[2]; [6]", "result": 5.17}, {"measurement": "pKi", "setting": "[4]", "result": 4.68}]}
{"smiles": "CC(C)NCC(O)COc1ccc(CC(N)=O)cc1", "note": "(stereo not drawn) [Atenolol, atenolol]", "values": [{"measurement": "pKi", "setting": "[4]", "result": 4.96}]}
